Entries after “also recorded” stand apart in the source; their conditions may differ.
System: RBPMS2 transcript level in GIST882 cells
Assay: RBPMS2 transcript level by quantitative RT-PCR in GIST882 cells after inhibitor treatment
Type: cell-based, human
Protocol: For quantitative RT-PCR analysis, gene expression levels were measured using the LightCycler technology (Roche Diagnostics). […] Each sample was assayed in three independent experiments in triplicate. Expression levels were determined with the LightCycler analysis software (version 3.5) relative to standard curves. Data were represented as the mean level of gene expression relative to the expression of the reference gene HPRT (Roche Diagnostic). For cell culture experiments, RNA isolation was done with the RNeasy Mini kit (Qiagen) and quantitative RT-PCR was performed using Power Sybergreen (Applied biosystems). Data were represented as the mean level of gene expression relative to the expression of the reference genes ABL, TTC1 and UBC for the comparison of RBPMS2 expression between different cell lines and GAPDH and ACTIN for GIST882 cells, which were treated with either Imatinib or U0126.
The human GIST cell line GIST882 was maintained in DMEM (GIBCO) supplemented with 10% Fetal Bovine Serum (FBS), 2% Penicilline-Streptomycin (Lonza) and incubated with 1 μM of Imatinib (inhibitor of KIT activity) (LC Laboratory) or 5 μM of U0126 (MEK inhibitor) (Sigma-Aldrich), as previously described (Gromova et al., 2011).

Row | Compound | RBPMS2 transcript (mRNA) level (5 μM U0126 vs DMSO control, 6, 24 and 48 h) | RBPMS2 transcript (mRNA) level (1 μM Imatinib vs DMSO control, 6, 24 and 48 h)
1 | N#CC(=C(/N)Sc1ccccc1N)/C(C#N)=C(\N)Sc1ccccc1N [U0126] | No significant changes; also recorded: not influenced | –
2 | Cc1ccc(NC(=O)c2ccc(CN3CCN(C)CC3)cc2)cc1Nc1nccc(-c2cccnc2)n1 [Imatinib] | – | No significant changes; also recorded: not influenced

— patent publication US20150259403A1, “Methods and Pharmaceutical Compositions for Treatment of Gastrointestinal Stromal Tumors” (INSERM (INSTITUT NATIONAL DE LA SANTÉ ET DE LA RECHERCHE …, priority 2012, published 2015)
